From patent US5162328A, “N-[3-[2-(1H-imidazol-1-yl)ethoxy]phenyl]-4-(2-thienyl)-2-pyrimidinamine and pharmacologically acceptable salts” (American Cyanamid Company, priority 1991, dated 1992)
Like-named read-outs stand apart in the source and are kept apart here.

Assay: Pharmacokinetics in dogs (plasma concentration by HPLC)
Format: in vivo, dog (beagle)
Settings: dog, plasma, po, 2 mg/kg/day; for concentration at 0.5 h / concentration at 1 h / concentration at 2 h / concentration at 4 h / AUC(0-t) / Cmax / Tmax / half-life / AUC(0-inf): 2 mg/kg/day PO; for AUC(0-inf): read-out: AUCO- (to infinite time)
Protocol: Since dogs are used in toxicology studies of antiasthma compounds, this species is chosen for pharmacokinetic evaluations. Use of the dog permits the pharmacokinetic comparison of 2 or more compounds in the same test animal, an evaluation which could not be conveniently performed in a smaller species. For each test compound, normal dogs are given a dose of 2.0 mg/kg/day for 5 consecutive days. There is a washout period of 1 month between the study of each of the test compounds in the same four dogs. Each test compound is administered as a solution of 5 mg/ml in either 0.05 or 0.1N HCl which is dispensed into a gelatin capsule immediately prior to dosage.
Heparinized blood samples are obtained from each animal on the first, third and fifth day of dosage at 0.5, 1.0, 2.0, 4.0, 7.0, 12.0 and 24.0 hours after the dose. The samples are centrifuged immediately to obtain plasma which is frozen until analyzed.
Analysis of plasma is performed using High Performance Liquid Chromatography (HPLC). The analytical procedure is essentially identical for each compound. The internal standard used for N-[3-[2-(1H-imidazol-1-yl)ethoxy]phenyl]-4-(2-thienyl)2-pyrimidinamine is 2-chloro-11-(4-methyl-1-piperazinyl)dibenz[b,f][1,4]oxazepine succinate, while for 2-methyl-N^4 -[4-(4-pyridinyl)-2-pyrimidinyl]-1,4-benzenediamine dihydrochloride and N-[4-[2-(diethylamino)ethoxy]phenyl]-4-(4-pyridinyl)-2-pyrimidnamine dihydrochloride the internal standard is 7-ethoxy-coumarin. In a typical procedure, a 0.4 ml volume of acetonitrile containing internal standard is added a 0.2 ml volume of serum. The sample is mixed by vortexing and centrifuged. The clear protein free supernatent fluid is decanted into a clean tube and evaporated to dryness. The dry residue is dissolved in 0.2 ml of HPLC mobile phase and 50 ul of this solution injected. Peaks corresponding to the test compound being measured and to the internal standard compound are quantitated by their absorption of ultraviolet light at 280 nm. Each set of analytical samples is accompanied by the analysis of a group of standard dog plasma samples prepared to contain amounts of the compound being measured which encompasses the concentration range of the samples.
Four normal beagle dogs weighing between 9.2 and 10.2 Kg are used in the study.

concentration at 0.5 h (Dog 1, day 1, 0.5 h): 512 ng/mL | concentration at 1 h (Dog 1, day 1, 1 h): 233 ng/mL | concentration at 2 h (Dog 1, day 1, 2 h): 55 ng/mL | concentration at 4 h (Dog 1, day 1, 4 h): < 30 ng/mL | AUC(0-t) (Dog 1, day 1): 458 ng·h/mL | Cmax (Dog 1, day 1): 512 ng/mL | Tmax (Dog 1, day 1): 30 min | half-life (Dog 1, day 1): 28.2 min | AUC(0-inf) (Dog 1, day 1): 520 ng·h/mL | concentration at 0.5 h (Dog 1, day 3, 0.5 h): 375 ng/mL | concentration at 1 h (Dog 1, day 3, 1 h): 295 ng/mL | concentration at 2 h (Dog 1, day 3, 2 h): 122 ng/mL | concentration at 4 h (Dog 1, day 3, 4 h): < 30 ng/mL | AUC(0-t) (Dog 1, day 3): 470 ng·h/mL | Cmax (Dog 1, day 3): 375 ng/mL | Tmax (Dog 1, day 3): 30 min | half-life (Dog 1, day 3): 54 min | AUC(0-inf) (Dog 1, day 3): 602 ng·h/mL | concentration at 0.5 h (Dog 1, day 5, 0.5 h): 120 ng/mL | concentration at 1 h (Dog 1, day 5, 1 h): 277 ng/mL | concentration at 2 h (Dog 1, day 5, 2 h): 50 ng/mL | concentration at 4 h (Dog 1, day 5, 4 h): < 30 ng/mL | AUC(0-t) (Dog 1, day 5): 293 ng·h/mL | Cmax (Dog 1, day 5): 277 ng/mL | Tmax (Dog 1, day 5): 60 min | AUC(0-inf) (Dog 1, day 5): 349 ng·h/mL | concentration at 0.5 h (Dog 2, day 1, 0.5 h): 438 ng/mL | concentration at 1 h (Dog 2, day 1, 1 h): 210 ng/mL | concentration at 2 h (Dog 2, day 1, 2 h): 58 ng/mL | concentration at 4 h (Dog 2, day 1, 4 h): < 30 ng/mL | AUC(0-t) (Dog 2, day 1): 406 ng·h/mL | Cmax (Dog 2, day 1): 438 ng/mL | Tmax (Dog 2, day 1): 30 min | half-life (Dog 2, day 1): 31.2 min | AUC(0-inf) (Dog 2, day 1): 471 ng·h/mL | concentration at 0.5 h (Dog 2, day 3, 0.5 h): 260 ng/mL | concentration at 1 h (Dog 2, day 3, 1 h): 78 ng/mL | concentration at 2 h (Dog 2, day 3, 2 h): < 30 ng/mL | concentration at 4 h (Dog 2, day 3, 4 h): < 30 ng/mL | AUC(0-t) (Dog 2, day 3): 293 ng·h/mL | Cmax (Dog 2, day 3): 260 ng/mL | Tmax (Dog 2, day 3): 30 min | AUC(0-inf) (Dog 2, day 3): 380 ng·h/mL | concentration at 0.5 h (Dog 2, day 5, 0.5 h): 350 ng/mL | concentration at 1 h (Dog 2, day 5, 1 h): 58 ng/mL | concentration at 2 h (Dog 2, day 5, 2 h): < 30 ng/mL | concentration at 4 h (Dog 2, day 5, 4 h): < 30 ng/mL | AUC(0-t) (Dog 2, day 5): 190 ng·h/mL | Cmax (Dog 2, day 5): 350 ng/mL | Tmax (Dog 2, day 5): 30 min | AUC(0-inf) (Dog 2, day 5): 255 ng·h/mL | concentration at 0.5 h (Dog 3, day 1, 0.5 h): 605 ng/mL | concentration at 1 h (Dog 3, day 1, 1 h): 234 ng/mL | concentration at 2 h (Dog 3, day 1, 2 h): 184 ng/mL | concentration at 4 h (Dog 3, day 1, 4 h): < 30 ng/mL | AUC(0-t) (Dog 3, day 1): 570 ng·h/mL | Cmax (Dog 3, day 1): 605 ng/mL | Tmax (Dog 3, day 1): 30 min | half-life (Dog 3, day 1): 58.2 min | AUC(0-inf) (Dog 3, day 1): 776 ng·h/mL | concentration at 0.5 h (Dog 3, day 3, 0.5 h): 387 ng/mL | concentration at 1 h (Dog 3, day 3, 1 h): 284 ng/mL | concentration at 2 h (Dog 3, day 3, 2 h): 141 ng/mL | concentration at 4 h (Dog 3, day 3, 4 h): < 30 ng/mL | AUC(0-t) (Dog 3, day 3): 477 ng·h/mL | Cmax (Dog 3, day 3): 387 ng/mL | Tmax (Dog 3, day 3): 30 min | half-life (Dog 3, day 3): 61.2 min | AUC(0-inf) (Dog 3, day 3): 635 ng·h/mL | concentration at 0.5 h (Dog 3, day 5, 0.5 h): 105 ng/mL | concentration at 1 h (Dog 3, day 5, 1 h): 289 ng/mL | concentration at 2 h (Dog 3, day 5, 2 h): < 30 ng/mL | concentration at 4 h (Dog 3, day 5, 4 h): < 30 ng/mL | AUC(0-t) (Dog 3, day 5): 125 ng·h/mL | Cmax (Dog 3, day 5): 289 ng/mL | Tmax (Dog 3, day 5): 60 min | AUC(0-inf) (Dog 3, day 5): 449 ng·h/mL | concentration at 0.5 h (Dog 4, day 1, 0.5 h): 482 ng/mL | concentration at 1 h (Dog 4, day 1, 1 h): 206 ng/mL | concentration at 2 h (Dog 4, day 1, 2 h): < 30 ng/mL | concentration at 4 h (Dog 4, day 1, 4 h): < 30 ng/mL | AUC(0-t) (Dog 4, day 1): 399 ng·h/mL | Cmax (Dog 4, day 1): 482 ng/mL | Tmax (Dog 4, day 1): 30 min | AUC(0-inf) (Dog 4, day 1): 630 ng·h/mL | concentration at 0.5 h (Dog 4, day 3, 0.5 h): 283 ng/mL | concentration at 1 h (Dog 4, day 3, 1 h): 44 ng/mL | concentration at 2 h (Dog 4, day 3, 2 h): < 30 ng/mL | concentration at 4 h (Dog 4, day 3, 4 h): < 30 ng/mL | AUC(0-t) (Dog 4, day 3): 175 ng·h/mL | Cmax (Dog 4, day 3): 283 ng/mL | Tmax (Dog 4, day 3): 30 min | AUC(0-inf) (Dog 4, day 3): 224 ng·h/mL | concentration at 0.5 h (Dog 4, day 5, 0.5 h): 420 ng/mL | concentration at 1 h (Dog 4, day 5, 1 h): < 30 ng/mL | concentration at 2 h (Dog 4, day 5, 2 h): < 30 ng/mL | concentration at 4 h (Dog 4, day 5, 4 h): < 30 ng/mL | AUC(0-t) (Dog 4, day 5): 105 ng·h/mL | Cmax (Dog 4, day 5): 420 ng/mL | Tmax (Dog 4, day 5): 30 min | AUC(0-inf) (Dog 4, day 5): 575 ng·h/mL | concentration at 0.5 h (Mean of 4 dogs, day 1, 0.5 h): 509 ng/mL | concentration at 1 h (Mean of 4 dogs, day 1, 1 h): 221 ng/mL | concentration at 2 h (Mean of 4 dogs, day 1, 2 h): 74 ng/mL | concentration at 4 h (Mean of 4 dogs, day 1, 4 h): < 30 ng/mL | concentration at 0.5 h (Mean of 4 dogs, day 3, 0.5 h): 326 ng/mL | concentration at 1 h (Mean of 4 dogs, day 3, 1 h): 175 ng/mL | concentration at 2 h (Mean of 4 dogs, day 3, 2 h): 66 ng/mL | concentration at 4 h (Mean of 4 dogs, day 3, 4 h): < 30 ng/mL | concentration at 0.5 h (Mean of 4 dogs, day 5, 0.5 h): 249 ng/mL | concentration at 1 h (Mean of 4 dogs, day 5, 1 h): 156 ng/mL | concentration at 2 h (Mean of 4 dogs, day 5, 2 h): < 30 ng/mL | concentration at 4 h (Mean of 4 dogs, day 5, 4 h): < 30 ng/mL | AUC(0-t) (Mean, day 1): 458 ng·h/mL | Cmax (Mean, day 1): 509 ng/mL | Tmax (Mean, day 1): 30 min | half-life (Mean, day 1): 39 min | AUC(0-inf) (Mean, day 1): 599 ng·h/mL | AUC(0-t) (Mean, day 3): 354 ng·h/mL | Cmax (Mean, day 3): 326 ng/mL | Tmax (Mean, day 3): 30 min | half-life (Mean, day 3): 57.6 min | AUC(0-inf) (Mean, day 3): 460 ng·h/mL | AUC(0-t) (Mean, day 5): 178 ng·h/mL | Cmax (Mean, day 5): 334 ng/mL | Tmax (Mean, day 5): 45 min | AUC(0-inf) (Mean, day 5): 407 ng·h/mL | k el (derived from mean of half-life values, read-out: elimination constant (converted)): 0.000248 s⁻¹
SMILES: Cc1cc(Nc2nccc(-c3ccncc3)n2)ccc1N.Cl.Cl [Compound 2, 2-methyl-N^4-[4-(4-pyridinyl)-2-pyrimidinyl]-1,4-benzenediamine dihydrochloride, reference compound]
